Consider one compound from patent US5294627A, “Directed biosynthesis of biologically active compounds” (Merck & Co., Inc., priority 1992, dated 1994).

pIC50: −log10 of the molar value.

The assay addresses T1, Squalene synthase (Rattus norvegicus, UniProt Q02769).
T1 construct: from tissue; host or cells: liver microsomes of Charles River CD rats fed 0.1% lovastatin for 4 days
T1 sequence (Q02769 1-416): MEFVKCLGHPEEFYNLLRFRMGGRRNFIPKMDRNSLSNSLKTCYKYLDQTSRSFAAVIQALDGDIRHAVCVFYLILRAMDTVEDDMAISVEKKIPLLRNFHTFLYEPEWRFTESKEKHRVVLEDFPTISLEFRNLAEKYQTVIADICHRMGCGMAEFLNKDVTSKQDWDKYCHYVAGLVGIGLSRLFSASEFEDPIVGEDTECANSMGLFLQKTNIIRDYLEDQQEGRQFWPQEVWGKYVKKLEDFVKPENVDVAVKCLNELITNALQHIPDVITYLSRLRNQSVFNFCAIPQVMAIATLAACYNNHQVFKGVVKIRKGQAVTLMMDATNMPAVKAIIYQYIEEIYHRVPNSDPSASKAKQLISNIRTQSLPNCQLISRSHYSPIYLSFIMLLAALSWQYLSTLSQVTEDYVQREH
Description: Squalene synthase assay (rat liver microsomes, [3H]farnesyl-pyrophosphate). In kind it is biochemical. Conditions: 30° C., 20 minutes. On the procedure:
The intrinsic squalene synthase inhibitory activity of representative compounds of this invention was measured by the standard in vitro protocol described below:
CHARLES RIVER CD rats (120 to 150 g) were fed a diet containing 0.1% lovastatin for 4 days. The livers from these rats were homogenized in 5 volumes (mL/g) of ice cold 50 mM HEPES (4-(2-hydroxyethyl)-1-piperazine-ethanesulfonic acid), 5 mM EDTA (ethylenediaminetetraacetic acid) pH 7.5 with a Potter-Elvehjem type tissue grinder. The homogenate was centrifuged twice at 20,000× g for 15 min. at 4° C., discarding the pellet each time. The supernatant was then centrifuged at 100,000× g for 1 hr at 4° C. The resulting microsomal pellet was resuspended in a volume of the above homogenizing buffer equal to one-fifth the volume of the original homogenate. This microsomal preparation has a protein concentration of about 7 mg/mL. The microsomal suspensions were stored in aliquots at -70° C. Squalene synthase activity in these aliquots is stable for a least several months. […]
If a squalene epoxidase inhibitor (ingredient (7) above), such as Banyu's FW-439H, is not used, the assay mix is degassed under a vacuum and flushed with N2. […] Five mL of scintillation fluid was added to the heptane solution and radioactivity was determined by liquid scintillation counting.
Percent inhibition is calculated by the formula: [formula]
(Liver microsomes are vesicles of endoplasmic reticulum, rich in cytochrome P450 enzymes.)

By pIC50 is commonly meant −log10 of the IC50, conventionally taken in molar units. A higher pIC50 goes with a small IC50. `CC(=O)OC(CCCC12OC(C(=O)O)C(O)(C(=O)O)C(C(=O)O)(O1)[C@H](OC(=O)CC/C=C/C(C)CCCc1ccccc1)[C@H]2O)C(C)Cc1cccs1` (stereo partly shown) had a pIC50 of over 6.88.
